Measured values: US20210199640A1, “Methods of Normalizing Aberrant Glycolytic Metabolism in Cancer Cells” (The Board of Trustees of the Leland Stanford Junior …, priority 2019, published 2021)

System: PKM2
Assay: [18F]DASA-23 cellular uptake as measure of PKM2 expression in U87 GBM cells
Format: cell-based, Human
Experimental: [18F]DASA-23 can be used to detect changes in GBM metabolism in response to TMZ and TTFields therapies. In one experiment, Human U87 GBM cells were subjected to 200 kHz TTFields, the IC50 of TMZ, or vehicle for three or six days (n≥3/condition), followed by evaluation of [18F]DASA-23 uptake (e.g., FIGS. 2 and 6). Immunofluorescence for PKM2 was performed to confirm the [18F]DASA-23 uptake results. (e.g., FIG. 9). Western blot analysis was performed to determine the effect of TMZ and TTFields exposure on the expression of PKM2. 2-way ANOVA with multiple comparisons was performed. (e.g., FIG. 8). Data are reported as mean±SD.
The ability of [18F]DASA-23 to detect changes in metabolism in response to TMZ and TTFields therapies, in cell culture and an orthotopic murine model of human GBM (FIG. 6) was evaluated. There was a significant interaction between the treatment (vehicle, TMZ, or TTFields) and treatment duration (3 or 6 days) on PKM2 expression as measured by cellular uptake of [18F]DASA-23 (p=0.005, 2-way ANOVA) (FIG. 6).

[1] = U87 cells, after exposure to TTFields, over 60 minutes, FIG. 7

Row | SMILES | reduction of PKM2 expression (U87 glioblastoma cells, over a 30 minute period, after treatment with chemotherapy (TMZ), FIG. 6) | reduction of [18F]DASA-23 uptake (U87 cells, after exposure to TTFields, over 30 minutes, FIG. 7) | reduction of [18F]DASA-23 retention [1] | reduction of [18F]DASA-23 uptake [1]
1 | Cn1nnc2c(C(N)=O)ncn2c1=O [TMZ, Temozolomide] | at least 10% |  |  | 
2 | COc1ccc(S(=O)(=O)N2CCN(S(=O)(=O)c3c(F)cccc3[18F])CC2)cc1 [[18F]DASA-23, 1-((2-fluoro-6-[18F]fluorophenyl)sulfonyl)-4-((4-methoxyphenyl)sulfonyl)piperazine] |  | at least 5% | at least 20% | at least 10%
